Reference: PubChem BioAssay (NCI)
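Grown in 96-well plates, cells were treated for 48 hours with each compound at five concentrations. Insufficient inhibition: endpoint recorded as highest concentration tested. TGI: total growth inhibition.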

What was measured:
Test in all cases: DTP human tumour cell line panel, 48 h
[1] = tested on: UACC-62 melanoma
[2] = tested on: SF-268 CNS
[3] = tested on: HOP-62 NSCLC
[4] = tested on: LOX IMVI melanoma
[5] = tested on: MCF7 breast
[6] = tested on: HL-60(TB) leukemia
[7] = tested on: NCI/ADR-RES ovarian
[8] = tested on: SN12C renal
[9] = tested on: KM12 colon
[10] = tested on: DU-145 prostate
[11] = tested on: SNB-75 CNS
[12] = tested on: T-47D breast
[13] = tested on: OVCAR-3 ovarian
[14] = tested on: SK-MEL-2 melanoma
[15] = tested on: HCC-2998 colon
[16] = tested on: NCI-H522 lung
[17] = tested on: NCI-H460 lung
[18] = tested on: SK-MEL-28 melanoma
[19] = tested on: CCRF-CEM leukemia
[20] = tested on: PC-3 prostate
[21] = tested on: HT29 colon
[22] = tested on: NCI-H23 lung
[23] = tested on: RXF 393 renal
[24] = tested on: UACC-257 melanoma
[25] = tested on: ACHN renal
[26] = tested on: A498 renal
[27] = tested on: K-562 leukemia
[28] = tested on: UO-31 renal
[29] = tested on: MOLT-4 leukemia
[30] = tested on: MDA-N
[31] = tested on: HCT-15 colon
[32] = tested on: SF-539 CNS
[33] = tested on: CAKI-1 renal
[34] = tested on: A549 NSCLC
[35] = tested on: IGROV1 ovarian
[36] = tested on: OVCAR-8 ovarian
[37] = tested on: SK-OV-3 ovarian
[38] = tested on: EKVX NSCLC
[39] = tested on: MDA-MB-231 breast
[40] = tested on: HCT-116 colon
[41] = tested on: OVCAR-5 ovarian
[42] = tested on: 786-0 renal
[43] = tested on: SR leukemia
[44] = tested on: COLO 205 colon
[45] = tested on: SNB-19 CNS
[46] = tested on: MALME-3M melanoma
[47] = tested on: SW-620 colon
[48] = tested on: NCI-H226 lung
[49] = tested on: SF-295 CNS
[50] = tested on: OVCAR-4 ovarian
[51] = tested on: M14 melanoma
[52] = tested on: SK-MEL-5 melanoma
[53] = tested on: MDA-MB-435
[54] = tested on: HOP-92 NSCLC
[55] = tested on: U251 CNS
[56] = tested on: BT-549 breast
[57] = tested on: TK-10 renal
[58] = tested on: HS 578T breast
[59] = tested on: RPMI-8226 leukemia

Measured: TGI

O=C(O)C(O)C(O)C(O)C(O)C(=O)O (stereo unspecified)
not listed: [56] | [57] | [58] | [59]
> 100 µM: all other assays above

Nc1ncnc2c1ncn2-c1ccc([N+](=O)[O-])cn1
not listed: [16] | [20] | [27] | [29] | [35] | [38] | [43] | [46]
> 100 µM: all other assays above
